# According to patent US8026221B2, “Method, composition and kit for antigenic binding of norwalk-like viruses” (Children's Hospital Medical Center, priority 2002, dated 2011):
# Test system: NV
# Test: Binding of synthetic histo-blood antigen with NLV after glycosidase digestion
# Set-up: species or system Norwalk Virus
# Details: after digestion with α-N-acetylgalactosaminidase
# Excerpt: Thus, the corresponding NLV could not be bound.
substance,measurement,value
GalNAc-α1→3 (Fuc-α1→2) Gal β-O-space) nBSA [A trisaccharide-BSA],Binding with NLV after removal of the antigenic determinant sugar epitope,losses binding
